From patent publication US20070197549A1, “Tetrazole compounds and their use as metabotropic glutamate receptor antagonists” (AstraZeneca AB, priority 2004, published 2007)

Target: T1, human mGluR5d (Homo sapiens, UniProt P41594)
T1 construct: expressed in transfected cells; GHEK cells stably expressing human mGluR5d are named only for the IP3 assay
Assay: FLIPR analysis of [Ca2+]i mobilization in cells expressing human mGluR5d
Assay type: cell-based
Method: For FLIPR analysis, cells expressing human mGluR5das described in WO97/05252 were seeded on collagen coated clear bottom 96-well plates with black sides and analysis of [Ca^2+]i mobilization was done 24 h after seeding.
FLIPR experiments were done using a laser setting of 0.800 W and a 0.4 second CCD camera shutter speed. Each FLIPR experiment was initiated with 160 μl of buffer present in each well of the cell plate. After each addition of the compound, the fluorescence signal was sampled 50 times at 1 second intervals followed by 3 samples at 5 second intervals. Responses were measured as the peak height of the response within the sample period. EC50 and IC50 determinations were made from data obtained from 8-point concentration response curves (CRC) performed in duplicate. Agonist CRC were generated by scaling all responses to the maximal response observed for the plate. […]
FLIPR experiments were done using a laser setting of 0.800 W and a 0.4 second CCD camera shutter speed with excitation and emission wavelengths of 488 nm and 562 nm, respectively. […] After each addition the fluorescence signal was sampled 50 times at 1 second intervals followed by 3 samples at 5 second intervals. Responses were measured as the peak height of the response within the sample period. […]

T1 sequence (P41594 21-942 isoform P41594-3 limits assumed): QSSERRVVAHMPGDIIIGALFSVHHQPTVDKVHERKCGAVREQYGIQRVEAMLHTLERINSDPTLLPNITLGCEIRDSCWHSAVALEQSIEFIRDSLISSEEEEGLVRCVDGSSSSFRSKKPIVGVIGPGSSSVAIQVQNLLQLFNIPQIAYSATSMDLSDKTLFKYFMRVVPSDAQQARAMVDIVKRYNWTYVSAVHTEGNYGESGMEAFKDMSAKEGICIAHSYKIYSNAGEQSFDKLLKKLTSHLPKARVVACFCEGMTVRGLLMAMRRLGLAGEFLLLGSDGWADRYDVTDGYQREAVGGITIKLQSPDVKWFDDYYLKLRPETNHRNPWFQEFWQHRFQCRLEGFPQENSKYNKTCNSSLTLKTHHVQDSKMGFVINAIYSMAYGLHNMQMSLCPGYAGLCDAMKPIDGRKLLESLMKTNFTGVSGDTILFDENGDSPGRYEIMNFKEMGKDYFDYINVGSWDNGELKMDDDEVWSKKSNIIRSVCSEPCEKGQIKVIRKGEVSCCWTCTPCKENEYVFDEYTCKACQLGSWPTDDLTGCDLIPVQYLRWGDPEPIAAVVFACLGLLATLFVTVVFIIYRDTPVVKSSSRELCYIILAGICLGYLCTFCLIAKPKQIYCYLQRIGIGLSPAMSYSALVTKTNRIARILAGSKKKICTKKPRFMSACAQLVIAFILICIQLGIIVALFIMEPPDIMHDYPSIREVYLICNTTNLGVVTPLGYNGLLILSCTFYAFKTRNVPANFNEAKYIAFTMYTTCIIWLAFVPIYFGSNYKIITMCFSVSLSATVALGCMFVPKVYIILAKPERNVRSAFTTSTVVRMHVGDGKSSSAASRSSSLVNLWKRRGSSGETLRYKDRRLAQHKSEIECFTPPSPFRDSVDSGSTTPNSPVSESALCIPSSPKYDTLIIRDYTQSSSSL

IC50 [nM] | SMILES
55 | CC(Sc1nnc(-c2ccncc2)n1C)c1nnn(-c2cc(Cl)ccc2F)n1 (centres unmarked) [4-(5-{1-[2-(5-Chloro-2-fluoro-phenyl)-2H-tetrazol-5-yl]-ethylsulfanyl}-4-methyl-4H-[1,2,4]triazol-3-yl)-pyridine]
132 | CCOC(=O)N1CCN(C(C)c2nnn(-c3cccc(Cl)c3)n2)CC1 (centres unmarked) [Ethyl 4-{1-[2-(3-chlorophenyl)-2H-tetrazol-5-yl]ethyl}piperazine-1-carboxylate]
